Measured values as given in ChEMBL document CHEMBL1147585, “Potent imidazole and triazole CB1 receptor antagonists related to SR141716” (Bioorg Med Chem Lett, 2004).

What was measured:
Cannabinoid receptor 1 [1] = molecular target: T1, Cannabinoid receptor 1 (Homo sapiens, UniProt P21554); test: Evaluated for binding affinity towards human Cannabinoid receptor 1
Cannabinoid receptor 1 [2] = molecular target: T1, Cannabinoid receptor 1; test: Evaluated for binding affinity towards human Cannabinoid receptor 1 at a concentration of 20 uM

T1 sequence (P21554 whole entry): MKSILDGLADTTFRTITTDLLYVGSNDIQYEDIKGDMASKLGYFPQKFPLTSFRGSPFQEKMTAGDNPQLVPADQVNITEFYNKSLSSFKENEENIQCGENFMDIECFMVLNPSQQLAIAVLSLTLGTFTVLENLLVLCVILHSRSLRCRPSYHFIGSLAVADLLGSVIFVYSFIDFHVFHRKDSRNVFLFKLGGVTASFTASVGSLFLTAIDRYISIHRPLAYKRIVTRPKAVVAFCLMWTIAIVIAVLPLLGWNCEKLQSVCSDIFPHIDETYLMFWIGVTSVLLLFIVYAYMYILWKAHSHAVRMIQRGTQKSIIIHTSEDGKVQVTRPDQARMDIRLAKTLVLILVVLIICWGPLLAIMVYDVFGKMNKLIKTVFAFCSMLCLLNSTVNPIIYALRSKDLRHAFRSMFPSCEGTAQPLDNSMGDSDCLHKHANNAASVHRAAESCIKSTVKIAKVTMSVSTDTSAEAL

Compound	Ki (Cannabinoid receptor 1 [1]) [µM]	inhibition (Cannabinoid receptor 1 [2]) [%]
O=C(NN1CC2CCCC2C1)c1cn(-c2ccc(Cl)cc2)c(-c2ccc(Cl)cc2Cl)n1 (configuration not stated)	0.066	–
O=C(NN1CC2CCCC2C1)c1nc(-c2ccc(Cl)cc2Cl)n(-c2ccc(Cl)cc2)n1 (configuration not stated)	0.137	–
O=C(NN1CCCCCC1)c1nc(-c2ccc(Cl)cc2)n(-c2ccc(Cl)cc2Cl)n1	–	43
CC1CCC(NC(=O)c2nc(-c3ccc(Cl)cc3Cl)n(-c3ccc(Cl)cc3)n2)CC1 (configuration not stated)	0.094	–
O=C(NN1CCCCCC1)c1cn(-c2ccc(Cl)cc2)c(-c2ccc(Cl)cc2Cl)n1	0.078	–
Cc1c(C(=O)NN2CCCCCC2)nn(-c2ccc(Cl)cc2Cl)c1-c1ccc(Cl)cc1	0.014	–
CN(C)CCNC(=O)c1cn(-c2ccc(Cl)cc2)c(-c2ccc(Cl)cc2Cl)n1	–	48
O=C(NC1CCCCC1)c1cn(-c2ccc(Cl)cc2)c(-c2ccc(Cl)cc2Cl)n1	0.048	–
CC(NC(=O)c1nc(-c2ccc(Cl)cc2Cl)n(-c2ccc(Cl)cc2)n1)c1ccc(Cl)cc1 (configuration not stated)	0.066	–
Cc1c(C(=O)Nc2ccncc2)nn(-c2ccc(Cl)cc2Cl)c1-c1ccc(Cl)cc1	0.085	–
C#Cc1c(C(=O)NN2CC3CCCC3C2)nc(-c2ccc(Cl)cc2Cl)n1-c1ccc(Cl)cc1 (configuration not stated)	0.77	–
CN(C)CCNC(=O)c1nc(-c2ccc(Cl)cc2Cl)n(-c2ccc(Cl)cc2)n1	–	49
Cc1c(C(=O)N(C)C2CCCCC2)nn(-c2ccc(Cl)cc2Cl)c1-c1ccc(Cl)cc1	0.1	–
Cc1c(C(=O)NCCc2ccc(F)cc2)nn(-c2ccc(Cl)cc2Cl)c1-c1ccc(Cl)cc1	0.091	–
O=C(c1nc(-c2ccc(Cl)cc2)n(-c2ccc(Cl)cc2Cl)n1)N1CCN(c2cccc(C(F)(F)F)c2)CC1	0.032	–
Cc1c(C(=O)NC(C)c2ccc(Cl)cc2)nc(-c2ccc(Cl)cc2Cl)n1-c1ccc(Cl)cc1 (configuration not stated)	0.033	–
N#Cc1c(C(=O)NN2CC3CCCC3C2)nc(-c2ccc(Cl)cc2Cl)n1-c1ccc(Cl)cc1 (configuration not stated)	0.009	–
Cc1c(C(=O)NCCO)nn(-c2ccc(Cl)cc2Cl)c1-c1ccc(Cl)cc1	–	69
O=C(NC1CCc2ccccc21)c1nc(-c2ccc(Cl)cc2Cl)n(-c2ccc(Cl)cc2)n1 (configuration not stated)	0.101	–
Cc1c(C(=O)NCCN(C)C)nn(-c2ccc(Cl)cc2Cl)c1-c1ccc(Cl)cc1	–	70
COc1cc(Cl)ccc1-c1nc(C(=O)NN2CC3CCCC3C2)nn1-c1ccc(Cl)cc1Cl (configuration not stated)	0.27	–
O=C(NN1CCCCC1)c1cn(-c2ccc(Cl)cc2)c(-c2ccc(Cl)cc2Cl)n1	0.085	–
O=C(NC1CCN(Cc2ccccc2)C1)c1nc(-c2ccc(Cl)cc2Cl)n(-c2ccc(Cl)cc2)n1 (configuration not stated)	0.029	–
Cc1c(C(=O)NC2CCCCC2)nn(-c2ccc(Cl)cc2Cl)c1-c1ccc(Cl)cc1	0.042	–
O=C(NN1CC2CCCC2C1)c1nc(-c2ccc(Cl)cc2Cl)n(-c2ccc(Cl)cc2)c1Br (configuration not stated)	0.011	–
Cc1c(C(=O)NC(C)C(C)C)nn(-c2ccc(Cl)cc2Cl)c1-c1ccc(Cl)cc1 (configuration not stated)	0.041	–
Cc1c(C(=O)NN2CC3CCCC3C2)nn(-c2ccc(Cl)cc2Cl)c1-c1ccc(Cl)cc1 (configuration not stated)	0.005	–
